Results taken from US20250179194A1, “COMPOSITIONS AND METHODS FOR IMMUNOTHERAPY TARGETING FLT3, PD-1, AND/OR PD-L1” (Cytoimmune Therapeutics, Inc., priority 2018, published 2025).

Assays:
[1] = system: surface FLT3 expression in MOLM-13, U937, THP-1, MV4-11, and EOL-1 AML cell lines; assay: Surface FLT3 expression in AML cell lines after FLT3 inhibitor treatment; assay type: cell-based, human; details: 10 μM, 48 hours
[2] = system: FLT3 surface density expression on AML blasts; assay: Surface FLT3 expression by flow cytometry on AML patient blasts; assay type: cell-based, human; details: 48 hours, peripheral blood samples
Method: FIG. 11 depicts the quantification of FLT3 surface density expression by flow cytometry on AML blasts before and after being treated with Midostaurin for 48 hours.
Further experiments were conducted to determine whether FLT3 expression was increased upon administration of an FLT3 inhibitor. […] FIG. 11 depicts the detection of surface FLT3 expression by flow cytometry in peripheral blood samples of patients who were treated with Midostaurin for 48 hours.

## Dovitinib [Dovitinib (TKI-258)]
[1]
  FLT3 surface expression in AML cell lines: upregulated

## CCCNc1nc(Nc2ccc(C#N)cc2)ncc1C#CCCCNC(=O)[C@H](C)N(C)C(=O)/C=C/CN(C)C [FF-10101]
[1]
  FLT3 surface expression in AML cell lines: upregulated

## CO[C@@H]1[C@H](N(C)C(=O)c2ccccc2)C[C@H]2O[C@]1(C)n1c3ccccc3c3c4c(c5c6ccccc6n2c5c31)C(=O)NC4 [Midostaurin]
[1]
  FLT3 surface expression in AML cell lines: upregulated
[2]
  FLT3 surface expression on AML patient blasts: upregulated
